Test system: gap junctions between keratinocytes
Test: Transfer of the dye lucifer yellow between keratinocytes via gap junctions
Type: cell-based
Conditions: substance alone

SMILES: C[C@H](NC(=O)Cc1cc(F)cc(F)c1)C(=O)N[C@H](C(=O)OC(C)(C)C)c1ccccc1 [DAPT, N—[N-(3,5-difluorophenacetyl)-L-alanyl]-S-phenylglycine t-butyl ester]
- diffusion of lucifer yellow between keratinocytes (exchanges via gap junctions): greatly reduced

Source: patent US10413502B2, “Cosmetic use of a peppermint extract” (LVMH RECHERCHE, priority 2015, dated 2019)
